Test results as given in paper PMC8497620, “Structure and inhibition of Cryptococcus neoformans sterylglucosidase to develop antifungal agents” (Nature Communications, 2021).
Several values for one entry are separate records, joined by “and”; a condition that tells them apart may be missing. Equal values may be shown once. Entries after “also recorded” stand apart in the source; their conditions may differ.

Key:
C. neoformans H99 = assay type: in vivo, Cryptococcus neoformans; conditions: Hit 1 intranasally, fluconazole intraperitoneally
Procedure: For animal studies, 4-week-old CBA/J (Envigo) female mice were used. Mouse experiments were performed in full compliance with a protocol approved by Stony Brook University (IACUC number 341588) and in compliance with the United States Animal Welfare Act (Public Law 98–198). The experiments were carried out in facilities accredited by the Association for Assessment and Accreditation of Laboratory Animal Care. Mice were divided into sets of 12 mice for each treatment or control group (4 animals per cage) kept in an animal room (temperature, 22–24 °C; relative humidity, 35–45%) with artificial 12–12 h dark/light cycle. For the experiment with intraperitoneal (i.p.) treatment, mice were infected intranasally with 10 µL of a suspension containing 1 × 10^6 C. neoformans H99 cells and subsequently treated through i.p. injection with 10 mg/kg/day of hit 1 in a final volume of 100 µL of vehicle containing 10% PEG 200 in PBS. The untreated animals received 100 µL of vehicle. For the experiment with intranasal (i.n.) treatment, mice were infected with 1 × 10^5 C. neoformans H99 cells and received i.n. treatment with hit 1 in a final volume of 10 µL. Another group received treatment with 10 mg/kg/day of fluconazole i.p. and a third group received the combined treatment of hit1 by i.n. and fluconazole by i.p. Animals receiving only vehicle i.n. were used as a control group. In both experiments, three mice of each group were euthanized at day 3, 6, 9, and 14 post infection for CFU recovery from lungs and CFU recovery from brain on day 14.

[1] = test system: human lung epithelial cancer cell line A549; conditions: A549 cells, 24 h, MTT
Procedure: The cells were maintained in Dulbecco’s modified eagle medium containing 10% fetal bovine serum and 1% penicillin–streptomycin. At passage 11, 10^5 cells were transferred into each well of 96-well plates and cultured for 18–24 h for the cells to adhere to the well surface. After, the medium was removed and a fresh medium containing the selected compounds at a concentration range of 1–512 μM were added to the wells. Controls with equivalent serial concentrations of DMSO were also evaluated and compared with a control without DMSO. The plate was incubated at 37 °C with 5% CO2. After 24 h, the supernatant was removed and 50 μL of 5 mg/mL 3-(4,5-dimethylthiazol-2-yl)-2,5-diphenyltetrazoliumbromide (MTT) solution in phosphate-buffered saline (PBS) was added to each well. The plates were incubated for an additional 4 h and the formazan crystals formed inside the cell was dissolved by adding 50 μL DMSO.

C. neoformans Sgl1 [2] = target: T1, C. neoformans Sgl1 (Cryptococcus neoformans var. grubii, UniProt J9W473); assay: Sgl1 inhibition with res-glp substrate (HTS, single-compound dose-response); assay type: biochemical; conditions: res-glp as substrate (100 µM), primary screen; read-out: IC50 against Sgl1
T1 sequence (J9W473 entry or part of it): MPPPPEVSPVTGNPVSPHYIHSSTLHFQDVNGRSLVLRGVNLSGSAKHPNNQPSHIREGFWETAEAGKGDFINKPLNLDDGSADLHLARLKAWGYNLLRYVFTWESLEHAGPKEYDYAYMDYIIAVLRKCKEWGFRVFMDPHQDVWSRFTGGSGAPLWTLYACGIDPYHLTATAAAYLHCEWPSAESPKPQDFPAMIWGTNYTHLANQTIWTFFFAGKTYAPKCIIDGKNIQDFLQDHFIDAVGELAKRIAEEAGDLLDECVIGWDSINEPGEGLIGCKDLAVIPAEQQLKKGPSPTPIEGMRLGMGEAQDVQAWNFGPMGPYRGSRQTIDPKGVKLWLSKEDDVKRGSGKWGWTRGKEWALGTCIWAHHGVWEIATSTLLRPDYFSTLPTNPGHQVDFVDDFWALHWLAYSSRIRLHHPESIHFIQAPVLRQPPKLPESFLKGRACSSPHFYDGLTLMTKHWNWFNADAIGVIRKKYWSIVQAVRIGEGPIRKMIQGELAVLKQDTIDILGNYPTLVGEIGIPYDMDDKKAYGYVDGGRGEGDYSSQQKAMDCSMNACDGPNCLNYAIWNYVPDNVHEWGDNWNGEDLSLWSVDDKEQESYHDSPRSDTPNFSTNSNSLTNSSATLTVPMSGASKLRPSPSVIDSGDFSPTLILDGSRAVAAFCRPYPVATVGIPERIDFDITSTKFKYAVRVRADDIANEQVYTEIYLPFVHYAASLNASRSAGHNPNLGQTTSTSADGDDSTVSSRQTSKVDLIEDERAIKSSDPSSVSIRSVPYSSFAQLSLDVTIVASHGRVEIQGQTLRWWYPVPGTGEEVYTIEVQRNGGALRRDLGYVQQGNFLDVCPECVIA
Procedure: Resorufin-3β-D-glucopyranoside (res-glp, Sigma-Aldrich) enzyme kinetic assays were performed according to methods described by Urban et al.[16] with modifications. Reaction buffer contained 50 mM citric acid, 176 mM K2HPO4, pH 6, 0.01% Tween-20, and 10 mM sodium taurocholate. The reactions were carried out in black 96-well plates using 20 ng of enzyme with 100 μM res-glp substrate. In all, 10 μL/well of res-glp substrate was added to each well and the reaction was initiated by adding 20 μL enzyme (20 ng). After incubation at 37 °C for 30–40 min, the fluorescence was read at an excitation of 570 (±10) nm and an emission of 610 (±10) nm on a VersaMax™ Microplate Reader from Molecular Devices. A standard curve was prepared with serial dilutions of the free fluorophore, resorufin, in the same volume of assay buffer.
A ChemBridge DIVERSet-CL library (San Diego, CA) containing 50,000 compounds was screened to identify small molecules that inhibit C. neoformans Sgl1. The library was prepared in a 96-well plate format containing a cocktail of 10 compounds per well at 1 mM each in 100% DMSO. The cocktail plates were first diluted to 100 μM each (1:10 dilution in Dulbecco’s phosphate-buffered saline, DPBS) resulting in 10% DMSO. In order to screen the compound cocktails at […] in 1% DMSO in a final reaction volume of 30 μL an aliquot of 3 μL was added to 17 μL of buffer containing 20 ng of enzyme and the reaction was started adding 10 μL of 100 μM res-glp. A negative control without enzyme and positive controls with and without DMSO were prepared. The plates were incubated at 37 °C for 40 min.
The Z′-factor was used for the assessment of the efficiency of the HTS assay for each individual plate. Values greater than 0.5 has been considered as an indicator of an excellent screening assay quality.

C. neoformans Sgl1 [3] = target: T1, C. neoformans Sgl1; assay: Enzymatic evaluation of C. neoformans Sgl1 against the fungal glucosylceramide (LC-MS); assay type: biochemical; conditions: 10 μg substrate, 10 or 50 μg Sgl1, pH 5.5, 37 °C, 4 h
Procedure: (§1) To verify the enzymatic activity of C. neoformans Sgl1 against the fungal long-chain glucosylceramide (GlcCer, OH-Δ8,9-methyl-glucosylceramide), kindly provided by Khojin (Japan). The reactions used 10 μg of substrate and 10 or 50 μg of C. neoformans Sgl1 or cerezyme (Genzyme Corporation, Cambridge, MA, USA) in 100 μL acetate buffer pH 5.5 incubated at 37 °C for 4 h[11]. The reaction was terminated by adding 300 μL of chloroform/methanol (1:1 ratio) and the lower phase was collected and dried. 9-Methyl-ceramide production was monitored by liquid chromatography-mass spectrometry (LC-MS).

[4] = Hydrolysis of fungal long-chain glucosylceramide by cerezyme (9-methyl-ceramide by LC-MS); assay type: biochemical; conditions: 4 h; for 9-methyl ceramide: 10 μg fungal GlcCer, 37 °C
Procedure: as §1

Molecule: OC(Cn1cncn1)(Cn1cncn1)c1ccc(F)cc1F [Fluconazole, fluconazole, reference compound]
- lung CFU compared to vehicle (C. neoformans H99; 14 days of treatment): significant difference among CFU recovered from the lungs; also recorded: slightly reduced lung CFU
- brain dissemination / CFU recovered from the brain (C. neoformans H99; 14 days): did not prevent C. neoformans brain dissemination
- Lung (CFU/mL) (C. neoformans H99; day 6 post infection, 10 mg/kg/day each, 10 mg/kg/day): 60000 CFU/mL and 120000 CFU/mL and 92000 CFU/mL

Molecule: CN1C[C@H](NS(=O)(=O)c2cc(Cl)ccc2Cl)C[C@H]1CO [Hit 13]
- LD50 (lethal dose 50) [1]: 217.3 µM
- IC50 (C. neoformans Sgl1 [2]): 2 µM

Molecule: CN1C[C@H](Nc2nc(C(C)(C)C)nc3c2cnn3C)C[C@H]1CO [Hit 14]
- LD50 (lethal dose 50) [1]: 357 µM
- IC50 (C. neoformans Sgl1 [2]): 1 µM

Molecule: CCCCCCCCCCCCCCCCC(O)C(=O)NC(COC1OC(CO)C(O)C(O)C1O)C(O)C=CCCC=C(C)CCCCCCCCC (centres unmarked) [fungal glucosylceramide, OH-Δ8,9-methyl-glucosylceramide]
- hydrolysis by Sgl1 (C. neoformans Sgl1 [3]): unable to detect hydrolysis

B1: Cerezyme: recombinant human glucosylceramidase (Genzyme Corporation) (protein, chains of the INN, looked up)
chain: ARPCIPKSFGYSSVVCVCNATYCDSFDPPTFPALGTFSRYESTRSGRRMELSMGPIQANHTGTGLLLTLQPEQKFQKVKGFGGAMTDAAALNILALSPPAQNLLLKSYFSEEGIGYNIIRVPMASCDFSIRTYTYADTPDDFQLHNFSLPEEDTKLKIPLIHRALQLAQRPVSLLASPWTSPTWLKTNGAVNGKGSLKGQPGDIYHQTWARYFVKFLDAYAEHKLQFWAVTAENEPSAGLLSGYPFQCLGFTPEHQRDFIARDLGPTLANSTHHNVRLLMLDDQRLLLPHWAKVVLTDPEAAKYVHGIAVHWYLDFLAPAKATLGETHRLFPNTMLFASEACVGSKFWEQSVRLGSWDRGMQYSHSIITNLLYHVVGWTDWNLALNPEGGPNWVRNFVDSPIIVDITKDTFYKQPMFYHLGHFSKFIPEGSQRVGLVASQKNDLDAVALMHPDGSAVVVVLNRSSKDVPLTIKDPAVGFLETISPGYSIHTYLWHRQ
- 9-methyl ceramide ([4]; Cerezyme 10 μg): 221.543 pmol/mL and 250.417 pmol/mL and 226.634 pmol/mL and 267.483 pmol/mL
- 9-methyl ceramide ([4]; Cerezyme 50 g (so in the source)): 243.428 pmol/mL and 279.737 pmol/mL and 384.828 pmol/mL and 393.256 pmol/mL
- hydrolysis of fungal glucosylceramide ([4]; positive control, pH 5.5, 37 °C): readily hydrolyzed fungal glucosylceramide
